{"source": "patent US8410078B2", "about": "“Composition and methods to treat cardiac diseases” (University of Connecticut, priority 2006, dated 2013)", "key": {"[1]": {"tested_on": "intact CSQ mouse hearts", "assay": "Cardiac function in intact CSQ mouse heart preparation", "experimental": "(§1) Following injection of heparin via tail vein (500 U/kg, iv) and anesthetization with nembutal (125 mg/kg for rats and 150 mg/kg for mice, ip) intraperitoneally, heart with all major vessels and lungs attached were excised. The aorta was then cannulated with a 20-gauge catheter, positioned about 2 mm above the coronary ostia. For the Langendorff method, a water-filled latex balloon (size #3) was inserted into the lumen of the left ventricle via the left atrium. The distal end of the balloon attached catheter was connected to a pressure transducer for measurement of intraventricular pressure and ±dP/dt. The balloon was inflated to a constantly held diastolic pressure of 5-7 mmHg. […]\n(§2) For the working heart model, a column of KHS buffer produced a constant hydrostatic pressure of 65 mmHg (for rat) or 55 mmHg (for mice). […] Aortic flow was the amount of perfusate exiting the aortic cannula measured in […]. […]\n(§3) The pressure recordings were channeled from amplifiers which had been pre-calibrated by a transducer simulator/calibrator (Ken Scientific Corp., Litchfield, Conn.). […] Data were analyzed by computer software (WorkBench for Windows+, Kent Scientific Corp) designed for an IBM-compatible computer (Dell). […] Data obtained with and without drug were analyzed by paired t test for possible statistically significant differences. […]"}, "[2]": {"tested_on": "cardiac P2X receptor", "assay": "Whole-cell voltage clamp of P2 agonist-induced current in WT ventricular myocytes", "type": "cell-based, mouse", "description": "Mice displaying the CSQ model of severe cardiomyopathy and heart failure were bred and maintained by methods known in the art. The CSQ transgenic (TG) mice were originally provided by Dr. Larry Jones (Krannert Institute of Cardiology, Indiana University School of Medicine, Indiana), and developed hypertrophy followed by a lethal heart failure phenotype with death near the age of 3 months. Ventricular myocytes were obtained from 3-month old wild type (WT) and CSQ mice of either sex (26 WT, 47 TG) by an enzymatic dissociation procedure. Briefly, the hearts were rapidly excised from mice that had been anesthetized with pentobarbital and treated with 1000 Units of heparin. The aorta was cannulated and the heart perfused in a Langendorff apparatus with oxygenated (95% O2/5% CO2) Ca^2+-free solution (37° C.) for 5 minutes at a rate of 2.5 ml/min. The solution composition was: 126 mM NaCl, 4.4 mM KCl, 1.0 mM MgCl2, 18 mM NaHCO3, 11 mM Glucose, 4 mM HEPES, and 3 mM BDM (2,3-butanedione monoxime), (pH 7.3 adjusted with NaOH). Thereafter, the perfusing solution was changed to that containing 25 μM CaCl2 and liberase (70 μg/ml, Roche Molecular Biochemicals, Inc.) for 8-10 minutes. Cells were sedimented by gravity for 10-15 minutes and the pellet was resuspended in 200 μM Ca^2+-containing Tyrode's solution (containing 3 mM BDM), allowed to settle for 30 minutes at room temperature, and suspended with Tyrode's solution containing: 135 mM NaCl, 5.4 mM KCl, 1.0 mM CaCl2, 1.0 mM MgCl2, 10 mM HEPES and 10 mM dextrose (pH 7.4 adjusted with NaOH). The experiments were carried out at room temperature (22-23° C.) and were completed within 4-6 hours after myocyte isolation.\nThe whole cell patch-clamp technique was used for these experiments. Electrodes were prepared from borosilicate glass pipettes (1.2 mm i.d.) with a two step pulling procedure and filled with pipette solution. The pipette was connected via an Ag—AgCl wire to the head stage of an amplifier (List EPC-7, Medical Systems, Greenvale, N.Y.) controlled by a computer and Axon pClamp™ software. For voltage clamp experiments, the electrodes were filled with a solution containing: 135 mM cesium aspartate, 5 mM NaCl, 5 mM Mg2ATP, 10 mM HEPES, and 10 mM EGTA (pH 7.3 adjusted with CsOH) with or without 2 mM GDPβS. Electrode resistances were 2-4 MΩ. As soon as electrical contact was established, the superfusion medium was changed to a modified Tyrode's solution (5.4 mM KCl was omitted and 10 mM CsCl and 5 μM ouabain were added to Tyrode's solution to block K^+ currents and the Na/K pump current, respectively). In quantifying the P2 agonist-induced current, the Tyrode's solution contained the indicated concentration of each agent. In studying the effect of a P2 receptor antagonist, both agonist and antagonist were co-applied at the indicated concentrations. The voltage clamp protocol used was a ramp voltage protocol from −100 mV holding potential to +50 mV. The ramp protocol was applied to cells at 20 s intervals for 1 minute. Three current traces from −100 mV to 50 mV were averaged to construct the I-V relationship."}, "[3]": {"tested_on": "intact WT mouse hearts", "assay": "Cardiac function in intact WT mouse heart preparation", "experimental": "as §1, §2, §3"}}, "data": [{"smiles": "Nc1nc(Cl)nc2c1ncn2C1[C@H]2C[C@@]2(COP(=O)(O)O)[C@@H](O)[C@H]1O", "note": "(stereo partly drawn) [MRS2339, (1′S,2′R,3′S,4′R,5′S)-4-(6-amino-2-chloro-9H-purin-9-yl)-1-[phosphoryloxymethyl]bicyclo[3.1.0]hexane-2,3-diol]", "values": [{"measurement": "+dP/dt", "setting": "[1]", "result": "increased"}, {"measurement": "Effect of GDPβS on MRS2339-evoked current density", "setting": "[2]; at +50 mV", "result": "no difference"}, {"measurement": "MRS2339-evoked current density in the absence of GDPβS", "setting": "[2]; at −100 mV", "result": "−0.73±0.15", "unit": "pA/pF"}, {"measurement": "MRS2339-evoked current density with GDPβS", "setting": "[2]; at −100 mV", "result": "−0.66±0.10", "unit": "pA/pF"}, {"measurement": "+dP/dt", "setting": "[3]", "result": "increased"}]}]}
